Assay results as given in patent US6737383B1, “Herbicidal oxadiazolidines” (priority 1999, dated 2004).

What was measured:
soybean = experiment: Test B pre/postemergence soybean; format: in vivo, Glycine max
Outline: (§1)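 Herbicidal effect was estimated by eye on a ten-point control scale after plants spent twelve to sixteen days in a greenhouse following soil or foliar treatment. Foliar sprays targeted plants at one to four leaves; all doses were formulated in a non-phytotoxic solvent with surfactant.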

rape = experiment: Test B pre/postemergence rape; format: in vivo, Brassica napus
Outline: as §1

pigweed = experiment: Test B pre/postemergence pigweed; format: in vivo, Amaranthus retroflexus
Outline: as §1

giant foxtail = experiment: Test B pre/postemergence giant foxtail; format: in vivo, Setaria faberii
Outline: as §1

sugar beet = experiment: Test B pre/postemergence sugar beet; format: in vivo, Beta vulgaris
Outline: as §1

wheat = experiment: Test B pre/postemergence wheat; format: in vivo, Triticum aestivum
Outline: as §1

bedstraw = experiment: Test B pre/postemergence bedstraw; format: in vivo, Galium aparine
Outline: as §1

cocklebur = experiment: Test B pre/postemergence cocklebur; format: in vivo, Xanthium strumarium
Outline: as §1

blackgrass = experiment: Test B pre/postemergence blackgrass; format: in vivo, Alopecurus myosuroides
Outline: as §1

crabgrass = experiment: Test B pre/postemergence crabgrass; format: in vivo, Digitaria sanguinalis
Outline: as §1

surinam grass = experiment: Test B pre/postemergence surinam grass; format: in vivo, Brachiaria decumbens
Outline: as §1

purple nutsedge = experiment: Test B pre/postemergence purple nutsedge; format: in vivo, Cyperus rotundus
Outline: as §1

wild oat = experiment: Test B pre/postemergence wild oat; format: in vivo, Avena fatua
Outline: as §1

morningglory = experiment: Test B pre/postemergence morningglory; format: in vivo, Ipomoea hederacea
Outline: as §1

velvetleaf = experiment: Test B pre/postemergence velvetleaf; format: in vivo, Abutilon theophrasti
Outline: as §1

corn = experiment: Test B pre/postemergence corn; format: in vivo, Zea mays
Outline: as §1

[1] = Postemergence, Rate 62 g/ha, scale 0 to 10, 0 is no effect, 10 is complete control
[2] = Preemergence, Rate 125 g/ha, scale of 0 to 10 where 0 is no effect and 10 is complete control
[3] = Preemergence, Rate 250 g/ha, scale 0 (no effect) to 10 (complete control)
[4] = Rate 62 g/ha, Preemergence, scale 0 to 10
[5] = Rate 250 g/ha, Postemergence, scale 0 to 10, 0 is no effect, 10 is complete control
[6] = Rate 500 g/ha, Postemergence, scale 0 to 10, 0 is no effect, 10 is complete control
[7] = Rate 500 g/ha, Preemergence, scale 0 to 10 (0 no effect, 10 complete control)
[8] = Postemergence, Rate 125 g/ha, scale of 0 to 10 where 0 is no effect and 10 is complete control

## CC(C)N(C(=O)n1oc(=O)n(CCN(C)C(=O)c2ccccc2)c1=O)c1ccccc1 [Compound 761]
soybean; [1]
  Plant response rating, Soybean: 2
soybean; [2]
  Plant response rating, Soybean: 0
soybean; [3]
  Soybean plant response rating: 0
soybean; [4]
  Soybean plant response rating: 0
soybean; [5]
  Soybean plant response rating: 3
soybean; [6]
  Soybean plant response rating: 3
soybean; [7]
  Soybean plant response rating: 0
rape; [1]
  Plant response rating, Rape: 0
rape; [8]
  Rape plant response rating: 0
rape; [2]
  Plant response rating, Rape: 0
rape; [3]
  Rape plant response rating: 0
rape; [4]
  Rape plant response rating: 0
rape; [5]
  Rape plant response rating: 0
rape; [6]
  Rape plant response rating: 0
rape; [7]
  Rape plant response rating: 0
pigweed; [1]
  Plant response rating, Redroot pigweed: 0
pigweed; [2]
  Plant response rating, Redroot pigweed: 0
pigweed; [3]
  Redroot pigweed plant response rating: 0
pigweed; [4]
  Redroot pigweed plant response rating: 0
pigweed; [5]
  Redroot pigweed plant response rating: 6
pigweed; [6]
  Redroot pigweed plant response rating: 6
pigweed; [7]
  Redroot pigweed plant response rating: 0
Giant foxtail; [1]
  Plant response rating, Giant foxtail: 0
Giant foxtail; [8]
  Giant foxtail plant response rating: 0
Giant foxtail; [2]
  Plant response rating, Giant foxtail: 0
Giant foxtail; [3]
  Giant foxtail plant response rating: 8
Giant foxtail; [4]
  Giant foxtail plant response rating: 0
Giant foxtail; [6]
  Giant foxtail plant response rating: 3
Giant foxtail; [7]
  Giant foxtail plant response rating: 9
Sugar beet; [1]
  Plant response rating, Sugarbeets: 2
Sugar beet; [2]
  Plant response rating, Sugarbeets: 0
Sugar beet; [3]
  Sugarbeets plant response rating: 0
Sugar beet; [4]
  Sugarbeets plant response rating: 0
Sugar beet; [5]
  Sugarbeets plant response rating: 3
Sugar beet; [6]
  Sugarbeets plant response rating: 6
Sugar beet; [7]
  Sugarbeets plant response rating: 0
wheat; [1]
  Plant response rating, Wheat: 0
wheat; [2]
  Plant response rating, Wheat: 0
wheat; [3]
  Wheat plant response rating: 0
wheat; [4]
  Wheat plant response rating: 0
wheat; [5]
  Wheat plant response rating: 0
wheat; [6]
  Wheat plant response rating: 0
wheat; [7]
  Wheat plant response rating: 0
bedstraw; [8]
  Bedstraw plant response rating: 0
bedstraw; [2]
  Plant response rating, Bedstraw: 0
bedstraw; [3]
  Bedstraw plant response rating: 0
bedstraw; [4]
  Bedstraw plant response rating: 0
bedstraw; [5]
  Bedstraw plant response rating: 0
bedstraw; [6]
  Bedstraw plant response rating: 3
bedstraw; [7]
  Bedstraw plant response rating: 0
cocklebur; [1]
  Plant response rating, Cocklebur: 0
cocklebur; [8]
  Cocklebur plant response rating: 0
cocklebur; [2]
  Plant response rating, Cocklebur: 0
cocklebur; [3]
  Cocklebur plant response rating: 0
cocklebur; [4]
  Cocklebur plant response rating: 0
cocklebur; [5]
  Cocklebur plant response rating: 0
cocklebur; [6]
  Cocklebur plant response rating: 0
cocklebur; [7]
  Cocklebur plant response rating: 0
blackgrass; [1]
  Plant response rating, Blackgrass: 0
blackgrass; [8]
  Blackgrass plant response rating: 0
blackgrass; [2]
  Plant response rating, Blackgrass: 0
blackgrass; [3]
  Blackgrass plant response rating: 0
blackgrass; [4]
  Blackgrass plant response rating: 0
blackgrass; [5]
  Blackgrass plant response rating: 0
blackgrass; [6]
  Blackgrass plant response rating: 0
blackgrass; [7]
  Blackgrass plant response rating: 0
crabgrass; [2]
  Plant response rating, Crabgrass: 3
crabgrass; [3]
  Crabgrass plant response rating: 5
crabgrass; [4]
  Crabgrass plant response rating: 3
crabgrass; [5]
  Crabgrass plant response rating: 0
crabgrass; [6]
  Crabgrass plant response rating: 0
crabgrass; [7]
  Crabgrass plant response rating: 3
Surinam grass; [1]
  Plant response rating, B. signalgrass: 0
Surinam grass; [8]
  B. signalgrass plant response rating: 0
Surinam grass; Preemergence, Rate 62 g/ha, scale of 0 to 10 where 0 is no effect and 10 is complete control
  B. signalgrass plant response rating: 0
Surinam grass; [2]
  Plant response rating, B. signalgrass: 0
Surinam grass; [3]
  B. signalgrass plant response rating: 0
Surinam grass; [5]
  B. signalgrass plant response rating: 3
Surinam grass; [6]
  B. signalgrass plant response rating: 3
Surinam grass; [7]
  B. signalgrass plant response rating: 3
Purple nutsedge; [1]
  Plant response rating, Nutsedge: 0
Purple nutsedge; [8]
  Nutsedge plant response rating: 0
Purple nutsedge; [2]
  Plant response rating, Nutsedge: 0
Purple nutsedge; [3]
  Nutsedge plant response rating: 0
Purple nutsedge; [4]
  Nutsedge plant response rating: 0
Purple nutsedge; [5]
  Nutsedge plant response rating: 0
Purple nutsedge; [6]
  Nutsedge plant response rating: 0
Purple nutsedge; [7]
  Nutsedge plant response rating: 0
Wild oat; [1]
  Plant response rating, Wild oats: 0
Wild oat; [2]
  Plant response rating, Wild oats: 0
Wild oat; [3]
  Wild oats plant response rating: 0
Wild oat; [4]
  Wild oats plant response rating: 0
Wild oat; [5]
  Wild oats plant response rating: 0
Wild oat; [6]
  Wild oats plant response rating: 0
Wild oat; [7]
  Wild oats plant response rating: 0
morningglory; [1]
  Plant response rating, Morningglory: 0
morningglory; [8]
  Morningglory plant response rating: 6
morningglory; [2]
  Plant response rating, Morningglory: 0
morningglory; [3]
  Morningglory plant response rating: 0
morningglory; [4]
  Morningglory plant response rating: 0
morningglory; [5]
  Morningglory plant response rating: 7
morningglory; [7]
  Morningglory plant response rating: 0
velvetleaf; [1]
  Plant response rating, Velvetleaf: 0
velvetleaf; [2]
  Plant response rating, Velvetleaf: 0
velvetleaf; [3]
  Velvetleaf plant response rating: 0
velvetleaf; [4]
  Velvetleaf plant response rating: 0
velvetleaf; [5]
  Velvetleaf plant response rating: 0
velvetleaf; [6]
  Velvetleaf plant response rating: 0
velvetleaf; [7]
  Velvetleaf plant response rating: 0
corn; [1]
  Plant response rating, Corn: 0
corn; [8]
  Corn plant response rating: 0
corn; [2]
  Plant response rating, Corn: 0
corn; [3]
  Corn plant response rating: 0
corn; [4]
  Corn plant response rating: 0
corn; [5]
  Corn plant response rating: 0
corn; [6]
  Corn plant response rating: 0
corn; [7]
  Corn plant response rating: 0
